Measured values from ChEMBL document CHEMBL5523727, “Discovery of KT-413, a Targeted Protein Degrader of IRAK4 and IMiD Substrates Targeting MYD88 Mutant Diffuse Large B-Cell Lymphoma” (J Med Chem, 2024).
The source made the active and inactive calls. No cut-off for these calls is given here.

Experiments:
Protein cereblon = Protein cereblon (Homo sapiens, UniProt Q96SW2); test: Binding affinity to CRBN (unknown origin) by HTRF assay
Cereblon/Ikaros [1] = biological target: T1, Cereblon/Ikaros (Homo sapiens, UniProt Q96SW2+Q13422); test: PROTAC activity at CRBN/Ikaros in human OCI-Ly10 cells assessed as induction of Ikaros degradation measured after 24 hrs by MSD assay; type: cell-based
[2] = Half life in rat plasma; type: ADME, cell-free
[3] = Drug exposure in rat administered as iv bolus dose; type: ADME, organism-based; conditions: in vivo
[4] = Drug exposure in Non human primate administered as iv dose; type: ADME, organism-based; conditions: primates, in vivo
[5] = Half life in dog plasma; type: ADME, cell-free, Canis lupus familiaris
[6] = Half life in human plasma; type: ADME, cell-free
[7] = Half life in Non human primate plasma; type: ADME, cell-free; conditions: primates
[8] = biological target: T2, Protein cereblon/Interleukin-1 receptor-associated kinase 4 (Homo sapiens, UniProt Q9NWZ3+Q96SW2); test: PROTAC activity at CRBN/IRAK4 in human OCI-Ly10 cells assessed as induction of IRAK4 degradation measured after 24 hrs by MSD assay; type: cell-based
Target sequence in this assay (Q9NWZ3 whole entry): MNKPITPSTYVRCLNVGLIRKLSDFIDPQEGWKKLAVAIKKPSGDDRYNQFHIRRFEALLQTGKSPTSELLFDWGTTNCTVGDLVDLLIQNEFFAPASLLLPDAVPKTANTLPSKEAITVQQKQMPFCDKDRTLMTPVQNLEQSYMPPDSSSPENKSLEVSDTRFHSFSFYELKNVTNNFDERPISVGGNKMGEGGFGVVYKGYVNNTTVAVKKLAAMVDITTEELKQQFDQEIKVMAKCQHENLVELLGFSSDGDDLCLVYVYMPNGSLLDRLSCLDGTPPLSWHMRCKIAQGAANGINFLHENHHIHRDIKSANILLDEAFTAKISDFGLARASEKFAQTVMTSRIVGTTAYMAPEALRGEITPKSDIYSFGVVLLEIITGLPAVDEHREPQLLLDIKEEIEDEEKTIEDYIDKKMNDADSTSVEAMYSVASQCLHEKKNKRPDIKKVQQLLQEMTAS
Target sequence in this assay (Q96SW2 whole entry): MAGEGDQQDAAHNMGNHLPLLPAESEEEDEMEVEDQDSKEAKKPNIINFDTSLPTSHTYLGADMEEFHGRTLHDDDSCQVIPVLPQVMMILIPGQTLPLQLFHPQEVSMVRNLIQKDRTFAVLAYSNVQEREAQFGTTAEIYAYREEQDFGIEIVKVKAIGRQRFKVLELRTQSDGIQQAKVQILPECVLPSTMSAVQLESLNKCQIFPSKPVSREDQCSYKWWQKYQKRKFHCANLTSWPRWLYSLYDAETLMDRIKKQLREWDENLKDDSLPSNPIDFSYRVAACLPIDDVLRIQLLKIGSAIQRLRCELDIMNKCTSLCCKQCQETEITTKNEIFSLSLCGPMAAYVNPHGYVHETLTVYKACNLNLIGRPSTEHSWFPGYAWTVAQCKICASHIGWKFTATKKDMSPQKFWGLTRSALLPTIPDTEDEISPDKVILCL

[9] = Volume of distribution at steady state in mouse at 2 mg/kg, iv by LC-MS/MS analysis; type: ADME, organism-based; conditions: in vivo, read-out: Vdss
[10] = Half life in rat at 2 mg/kg, iv by LC-MS/MS analysis; type: ADME, organism-based; conditions: in vivo
OCI-Ly10 [11] = test: […] of […] expression in human OCI-Ly10 cells at 60 nM measured after 2 to 8 hrs by TMT based quantitative proteomics analysis; type: functional, cell-based; conditions: time 2-8 hrs
[12] = Oral bioavailability in mouse at 10 mg/kg by LC-MS/MS analysis; type: ADME, organism-based; conditions: in vivo
[13] = AUC in Non human primate at 2.1 mg/kg, po by LC-MS/MS analysis; type: ADME, organism-based; conditions: primates, in vivo
OCI-Ly10 [14] = test: Effect on GSPT1 expression in human OCI-Ly10 at 60 nM measured after 2 to 8 hrs by TMT based quantitative proteomics analysis; type: functional, cell-based; conditions: time 2-8 hrs
[15] = Clearance in mouse at 2 mg/kg, iv by LC-MS/MS analysis; type: ADME, organism-based; conditions: in vivo
OCI-Ly10 [16] = test: Downregulation of LPXN expression in human OCI-Ly10 cells at 60 nM measured after 2 to 8 hrs by TMT based quantitative proteomics analysis; type: functional, cell-based; conditions: time 2-8 hrs
[17] = biological target: T2, Protein cereblon/Interleukin-1 receptor-associated kinase 4; test: PROTAC activity at CRBN/IRAK4 in human OCI-Ly10 cells assessed as maximum degradation at 41 nM measured after 24 hrs; type: cell-based
Target sequence in this assay (Q96SW2 whole entry, looked up): as the sequence (Q96SW2 whole entry) above
Target sequence in this assay (Q9NWZ3 whole entry, looked up): as the sequence (Q9NWZ3 whole entry) above

PBMC [18] = test: Effect on WIZ expression in human PBMC cells at 100 nM measured after 24 hrs by TMT based quantitative proteomics analysis; type: functional, cell-based
OCI-Ly10 [19] = test: Downregulation of FGD2 expression in human OCI-Ly10 cells at 60 nM measured after 2 to 8 hrs by TMT based quantitative proteomics analysis; type: functional, cell-based; conditions: time 2-8 hrs
[20] = Oral bioavailability in rat at 10 mg/kg by LC-MS/MS analysis; type: ADME, organism-based; conditions: in vivo
OCI-Ly10 [21] = test: Antitumor activity against human OCI-LY10 cells xenografted in CB-17.SCID mouse model assessed as tumor growth regression at 3 mg/kg, po QD dosed measured after 38 days; type: functional, organism-based; conditions: time 38.0 day
[22] = Metabolic stability in rat hepatocyte assessed as intrinsic clearance measured per million cells; type: ADME, cell-based; conditions: hepatocytes, read-out: CLH
[23] = Metabolic stability in Non human primate liver microsomes assessed as intrinsic clearance; type: ADME, Microsome; conditions: primates, read-out: CLH
[24] = Volume of distribution at steady state in Non human primate at 0.2 mg/kg, iv by LC-MS/MS analysis; type: ADME, organism-based; conditions: primates, in vivo, read-out: Vdss
[25] = Passive permeability of the compound in wild type MDCK cells across apical to basolateral side at 1 uM measured for 120 mins by LC-MS/MS analysis; type: ADME, cell-based, Canis lupus familiaris; conditions: dog, read-out: permeability
[26] = Clearance in Non human primate at 0.2 mg/kg, iv by LC-MS/MS analysis; type: ADME, organism-based; conditions: primates, in vivo
PBMC [27] = test: Effect on IKZF3 expression in human PBMC cells at 100 nM measured after 24 hrs by TMT based quantitative proteomics analysis; type: functional, cell-based
[28] = Half life in dog at 0.2 mg/kg, iv by LC-MS/MS analysis; type: ADME, organism-based, Canis lupus familiaris; conditions: in vivo
[29] = Oral bioavailability in Non human primate at 2.1 mg/kg by LC-MS/MS analysis; type: ADME, organism-based; conditions: primates, in vivo
PBMC [30] = test: Effect on ZFP276 expression in human PBMC cells at 100 nM measured after 24 hrs by TMT based quantitative proteomics analysis; type: functional, cell-based
OCI-Ly10 [31] = test: Antitumor activity in human patient derived OCI-LY10 cells xenografted in NPG mouse bearing MYD88-mutated DLBCL tumor containing a CD79 co-mutation model assessed as tumor growth regression at 20 mg/kg, po QD dosed measured after 3 to 5 days relative to control; type: functional; conditions: time 3-5 day
PBMC [32] = test: Effect on IKZF1 expression in human PBMC cells at 100 nM measured after 24 hrs by TMT based quantitative proteomics analysis; type: functional, cell-based
OCI-Ly10 [33] = test: […] of IKZF3 expression in human OCI-Ly10 cells at 60 nM measured after 2 to 8 hrs by TMT based quantitative proteomics analysis; type: functional, cell-based; conditions: time 2-8 hrs
Cereblon/Ikaros [34] = biological target: T1, Cereblon/Ikaros; test: PROTAC activity at CRBN/Ikaros in human OCI-Ly10 cells assessed as maximum degradation at 41 nM measured within 2 hrs; type: cell-based
[35] = Metabolic stability in Non human primate hepatocyte assessed as intrinsic clearance measured per million cells; type: ADME, cell-based; conditions: primates, hepatocytes; read-out: CLH
[36] = Oral bioavailability in dog at 2.1 mg/kg by LC-MS/MS analysis; type: ADME, organism-based, Canis lupus familiaris; conditions: in vivo
[37] = biological target: T3, Protein cereblon/Zinc finger protein Aiolos (Homo sapiens, UniProt Q96SW2+Q9UKT9); test: PROTAC activity at CRBN/Aiolos in human OCI-Ly10 cells assessed as maximum degradation at 41 nM measured within 2 hrs; type: cell-based
Target sequence in this assay (Q96SW2 whole entry, looked up): as the sequence (Q96SW2 whole entry) above
Target sequence in this assay (Q9UKT9 whole entry, looked up): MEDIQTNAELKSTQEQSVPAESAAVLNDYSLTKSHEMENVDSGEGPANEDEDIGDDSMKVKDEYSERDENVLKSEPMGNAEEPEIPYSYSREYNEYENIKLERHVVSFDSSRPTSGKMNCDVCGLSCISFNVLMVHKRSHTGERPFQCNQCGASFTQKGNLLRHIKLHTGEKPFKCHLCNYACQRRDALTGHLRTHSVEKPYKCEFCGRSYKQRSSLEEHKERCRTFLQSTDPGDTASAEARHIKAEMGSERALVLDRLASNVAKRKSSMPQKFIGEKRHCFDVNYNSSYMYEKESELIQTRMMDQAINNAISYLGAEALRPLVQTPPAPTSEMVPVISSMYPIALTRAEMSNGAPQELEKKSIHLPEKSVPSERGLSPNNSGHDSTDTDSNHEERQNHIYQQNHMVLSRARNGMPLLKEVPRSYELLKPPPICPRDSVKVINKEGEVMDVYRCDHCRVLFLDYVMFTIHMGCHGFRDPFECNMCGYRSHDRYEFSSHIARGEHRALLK

[38] = Clearance in rat at 2 mg/kg, iv by LC-MS/MS analysis; type: ADME, organism-based; conditions: in vivo
OCI-Ly10 [39] = test: Downregulation of […] expression in human OCI-Ly10 cells at 60 nM measured after 2 to 8 hrs by TMT based quantitative proteomics analysis; type: functional, cell-based; conditions: time 2-8 hrs
[40] = Clearance in dog at 0.2 mg/kg, iv by LC-MS/MS analysis; type: ADME, organism-based, Canis lupus familiaris; conditions: in vivo
PBMC [41] = test: Effect on GSPT1 expression in human PBMC at 100 nM measured after 24 hrs by TMT based quantitative proteomics analysis; type: functional, cell-based
[42] = Metabolic stability in human hepatocyte assessed as intrinsic clearance measured per million cells; type: ADME, cell-based; conditions: hepatocytes, read-out: CLH
[43] = biological target: T3, Protein cereblon/Zinc finger protein Aiolos; test: PROTAC activity at CRBN/Aiolos in human OCI-Ly10 cells assessed as induction of Aiolos degradation measured after 24 hrs by MSD assay; type: cell-based
Target sequence in this assay (Q96SW2 whole entry): as the sequence (Q96SW2 whole entry) above
Target sequence in this assay (Q9UKT9 whole entry): as the sequence (Q9UKT9 whole entry, looked up) above

PBMC [44] = test: Downregulation of LPXN expression in human PBMC cells at 100 nM measured after 24 hrs by TMT based quantitative proteomics analysis; type: functional, cell-based
[45] = AUC in mouse at 10 mg/kg, po by LC-MS/MS analysis; type: ADME, organism-based; conditions: in vivo
OCI-Ly10 [46] = test: Antitumor activity against human OCI-LY10 cells xenografted in CB-17.SCID mouse model assessed as tumor growth regression at 10 to 30 mg/kg, po QD dosed measured after 38 days relative to control; type: functional; conditions: dose 10-30 mg/kg, time 38 day
[47] = Volume of distribution at steady state in dog at 0.2 mg/kg, iv by LC-MS/MS analysis; type: ADME, organism-based, Canis lupus familiaris; conditions: in vivo, read-out: Vdss
PBMC [48] = test: Downregulation of IRAK4 expression in human PBMC cells at 100 nM measured after 24 hrs by TMT based quantitative proteomics analysis; type: functional, cell-based
OCI-Ly10 [49] = test: Antiproliferative activity against human OCI-Ly10 cells measured after 4 days by CellTiter-Glo Luminescent Cell Viability Assay; type: functional, cell-based; conditions: Homo sapiens, OCI-Ly10, 96 h
[50] = AUC in rat at 10 mg/kg, po by LC-MS/MS analysis; type: ADME, organism-based; conditions: in vivo, read-out: AUC
[51] = Half life in mouse at 2 mg/kg, iv by LC-MS/MS analysis; type: ADME, organism-based; conditions: in vivo
[52] = Volume of distribution at steady state in rat at 2 mg/kg, iv by LC-MS/MS analysis; type: ADME, organism-based; conditions: in vivo, read-out: Vdss
PBMC [53] = test: Downregulation of FGD2 expression in human PBMC cells at 100 nM measured after 24 hrs by TMT based quantitative proteomics analysis; type: functional, cell-based
[54] = AUC in dog at 2.1 mg/kg, po by LC-MS/MS analysis; type: ADME, organism-based, Canis lupus familiaris; conditions: in vivo
[55] = Metabolic stability in dog hepatocyte assessed as intrinsic clearance measured per million cells; type: ADME, cell-based, Canis lupus familiaris; conditions: hepatocytes, read-out: CLH
[56] = Half life in Non human primate at 0.2 mg/kg, iv by LC-MS/MS analysis; type: ADME, organism-based; conditions: primates, in vivo
[57] = Metabolic stability in dog liver microsomes assessed as intrinsic clearance; type: ADME, Canis lupus familiaris, Microsome; conditions: read-out: CLH
[58] = Metabolic stability in mouse liver microsomes assessed as intrinsic clearance; type: ADME, Microsome; conditions: read-out: CLH
PBMC [59] = test: Effect on ZFP91 expression in human PBMC cells at 100 nM measured after 24 hrs by TMT based quantitative proteomics analysis; type: functional, cell-based

T1 sequence (Q96SW2 whole entry): as the sequence (Q96SW2 whole entry) above
T1 sequence (Q13422 whole entry): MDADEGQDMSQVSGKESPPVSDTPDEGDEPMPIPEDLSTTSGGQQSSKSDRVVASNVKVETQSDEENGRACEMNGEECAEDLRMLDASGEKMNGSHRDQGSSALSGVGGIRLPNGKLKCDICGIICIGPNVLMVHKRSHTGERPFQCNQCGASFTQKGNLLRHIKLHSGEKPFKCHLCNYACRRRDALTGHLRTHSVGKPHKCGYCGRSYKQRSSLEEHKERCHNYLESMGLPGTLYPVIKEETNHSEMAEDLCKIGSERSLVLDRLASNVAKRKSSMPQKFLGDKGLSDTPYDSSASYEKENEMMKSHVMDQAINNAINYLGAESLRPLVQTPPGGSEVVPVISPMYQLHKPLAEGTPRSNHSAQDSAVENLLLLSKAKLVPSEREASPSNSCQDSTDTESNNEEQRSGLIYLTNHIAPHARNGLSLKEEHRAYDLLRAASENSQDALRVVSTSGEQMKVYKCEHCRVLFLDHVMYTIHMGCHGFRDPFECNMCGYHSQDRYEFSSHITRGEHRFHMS
Chain of Protein cereblon (Q96SW2 whole entry): as the sequence (Q96SW2 whole entry) above

CC(C)(O)c1cc2nc([C@H]3CC[C@H](CN4CC5(CC(CCNc6cccc7c6C(=O)N([C@H]6CCC(=O)NC6=O)C7=O)C5)C4)CC3)sc2cc1NC(=O)c1cccc(C(F)(F)F)n1 gave an IC50 (Protein cereblon) of 3 nM, a DC50 (Cereblon/Ikaros [1]) of 2 nM and a half-life [2] of 2.15 h. It also gave a Drug uptake [3] of 57%, a Drug uptake [4] of 52% and a half-life [5] of 2.58 h. It also gave a half-life [6] of 4.03 h, a half-life [7] of 3.35 h and a DC50 [8] of 6.3 nM.
With CC(C)(O)c1cc2nc([C@H]3CC[C@H](CN4CC5(CC(CCNc6cccc7c6C(=O)N(C6CCC(=O)NC6=O)C7=O)C5)C4)CC3)sc2cc1NC(=O)c1cccc(C(F)(F)F)n1 (some centres not stated) [ZOMIRADOMIDE] the Vd [9] was 7.5 L/kg, the half-life [10] was 17 h and the Activity (OCI-Ly10 [11]) was “Active”. For the same compound, the bioavailability [12] was 19%, the AUC [13] was 3.6 µM·h and the DC50 (Cereblon/Ikaros [1]) was 1 nM. The Activity (OCI-Ly10 [14]) was “inactive”, the clearance [15] was 11 mL/min/kg and the Activity (OCI-Ly10 [16]) was “Active”. The Activity [17] was “Active”, the Activity (PBMC [18]) was “Active” and the Activity (OCI-Ly10 [19]) was “Active”. The bioavailability [20] was 15%, the Activity (OCI-Ly10 [21]) was “Active” and the hepatocyte CLint [22] was 0.8 µL/min/1e6 cells. It also gave a microsomal CLint [23] of 8.6 µL/min/mg, a Vd [24] of 5.8 L/kg and a Papp A→B at 2 h, 1 µM [25] of 1.3 ×10⁻⁶ cm/s. The clearance [26] was 4.5 mL/min/kg, the Activity (PBMC [27]) was “Active” and the half-life [28] was 28 h. For the same compound, the bioavailability [29] was 42%, the Activity (PBMC [30]) was “Active” and the Activity (OCI-Ly10 [31]) was 100%. For the same compound, the Activity (PBMC [32]) was “Active”, the Activity (OCI-Ly10 [33]) was “Active” and the Activity (Cereblon/Ikaros [34]) was “Active”. For the same compound, the hepatocyte CLint [35] was 2.7 µL/min/1e6 cells, the bioavailability [36] was 21% and the Activity [37] was “Active”. The clearance [38] was 9.1 mL/min/kg, the Activity (OCI-Ly10 [39]) was “Active” and the clearance [40] was 14 mL/min/kg. The Activity (PBMC [41]) was “inactive”, the hepatocyte CLint [42] was 3.5 µL/min/1e6 cells and the DC50 [43] was 1 nM. For the same compound, the Activity (PBMC [44]) was “Active”, the AUC [45] was 2.8 µM·h and the Activity (OCI-Ly10 [46]) was 100%. For the same compound, the Vd [47] was 29 L/kg, the Activity (PBMC [48]) was “Active” and the IC50 (OCI-Ly10 [49]) was 11 nM. For the same compound, the AUC [50] was 2.7 µM·h, the half-life [51] was 8.6 h and the Vd [52] was 15 L/kg. For the same compound, the Activity (PBMC [53]) was “Active”, the AUC [54] was 0.46 µM·h and the hepatocyte CLint [55] was 2.3 µL/min/1e6 cells. It also gave a half-life [56] of 16.4 h, a microsomal CLint [57] of 4.2 µL/min/mg and a microsomal CLint [58] of 4 µL/min/mg. For the same compound, the DC50 [8] was 6 nM and the Activity (PBMC [59]) was “Active”.
